Usually LD50 stands for the dose expected to kill half of the subjects tested. A higher LD50 goes with lower toxicity. By ED50 is commonly meant the dose at which the effect has come halfway, by size or by number of responders.

Each structure is given as a SMILES string. Like-named read-outs stand apart in the source and are kept apart here.

Results on 10 molecules are retold here after patent US5234934A, “Aminopropanol derivatives, process for their preparation and pharmaceutical compositions comprising the same” (priority 1989, dated 1993).

Data set [1] in a line: acute toxicity test in mice (Litchfield and Wilcoxon). The class given is in vivo, mouse. The note with it: mouse, in vivo, po., 14 days observation. The method, then:
The test for acute toxicity was carried out by using 10 white mice (CFLP strain) (both male and female), weighing 18 to 22 g in each dose group. The compounds of the invention were administered orally in a dose of 20 ml/kg.
The animals were kept in a plastic box on wood chips in a room of room temperature. They could consume tap water and standard mouse feed ad libitum. The toxicity data were determined by the method of Litchfield and Wilcoxon (Litchfield, J. T., Wilcoxon, F. W.: J. Pharmacol. Exp. Ther. 96, 99/1949/).

The test system of data set [2] is aconitine-induced ECG alterations. Briefly: animal or person. The class given is in vivo, rat. As to conditions: Rattus norvegicus, iv, read-out: Effect % (antiarrhythmic). The method, then: The test was carried out by using the modified method of Marmo et al. on rats weighing 160 to 200 g. The animals were narcotised by ethyl uretane (1.2 g/kg ip.). Aconitin was administered intravenously in a dose of 75 /ug/kg in the form of a bolus injection. The ECG alterations were monitored in standard II lead by 5 minutes after the administration of aconitine. The observed alterations were classified into classes 0 to 5. The compounds of the invention were administered 2 minutes or 60 minutes before the parenteral or oral administration of aconitine, respectively. […]
class 1: sometimes an extrasystole occurs class 2: each second one is an extrasystole class 3: extrasystoles in groups class 4: each one is an extrasystole class 5: fibrillation, death
(Marmo, E., DiGiacomo, S., Imperatore, A.: Arzeimittel-Forschung 20, 12/1970/)

In data set [3] the test system is coronary insufficiency caused by vasopressine. Briefly: antianginal effect on rats (vasopressine coronary insufficiency, Nieschulz). In kind it is in vivo, rat. The note with it: Rattus norvegicus, read-out: ED50 (antianginal). The method, then:
The test was carried out by using rats weighing 180 to 220 g. The animals were narcotised by chloralose urethane (70 to 700 mg/kg ip.). The ECG alterations were registered in standard II lead with the aid of needle electrodes. The antianginal effect was measured with Nieschultz's method. The coronary insufficiency was caused by vasopressine (1 NE/kg, iv.). The size of the T-wave was measured before and after administration of vasopressine in both the control and test groups. The compounds of the invention were administered 2 minutes before the administration of vasopressine. (Nieschulz, O., Popendiker, K., Hoffmann, I.: Arzneimittel-Forschung 5, 680/1955/)

A further data set deals with gastric acid secretion. The data set can be described thus: gastric acid secretion test (Shay). In kind it is in vivo, rat. The note with it: Rattus norvegicus, rats, read-out: Inhibition of free acid, %; for inhibition in vivo at 160 mg/kg: dose 160 mg/kg po. The method, then: The test was carried out according to Shay's operational method. […] On the day of the test the pylorus of the animals was bound under ether narcosis. The test compounds were administered orally 3 hours before the operation. The animals of the control group were administered with the carrier only. 4 hours after the operation the stomach was removed, the content thereof was centrifuged and the amount of free acid was determined by titration with 0.1N sodium hydroxide.

For data set [4], the system named is peristalty of stomach and intestines. Briefly: effect exerted on the peristalty of stomach and intestines (Stickney et al., carbon suspension). The class given is in vivo, mouse. As to conditions: po., mice; for ED50: Mus musculus, read-out: ED50 (antiperistaltic); for TI (therapeutic index): antiperistaltic. The method, then:
The antiperistaltic effect of the compounds was examined by the method of Stickney et al. on white mice of both sexes, weighing 20 to 25 g. The compounds to be tested were administered per os 60 minutes before the addition of carbon suspension to groups containing 10 mice each. The animals of the control groups were treated at the same time and in the same manner with the carrier only. The mice were killed 10 minutes after the addition of the carbon suspension, and the whole length of the intestines as well as the length of the intestines filled with carbon suspension were measured.

The test system of a further data set is hexobarbital narcosis. Briefly: narcosis potentiating effect (hexobarbital sleeping time). The note with it: for ED50: Mus musculus, po, read-out: ED50 (narcosis potentiation); for TI (therapeutic index): narcosis potentiation, mice, po.
In another data set the test system is nervus ischiadicus. The data set can be described thus: local analgesic effect (Truant d'Amato's method). In kind it is in vivo. As to conditions: for EC50 %: 0.2 ml injected around nervus ischiadicus; for Duration of effect: in a conc. of 0.5%. As to the method:
The tests were carried out according to Truant d'Amato's method. 0.2 ml of test material was injected around the nervus ischiadicus in the middle of femur with a needle of 1 cm length. The criterion of analgesic effect was the lack of the motoric control of foot muscles.
The duration of effect was registered and the 50 percentile effective concentration (EC50) was calculated on the basis of the dose-effect curve. Lidocain was used as comparative material. (Truant, A. P., D'Amato, D.: Acta Chir Scand. 116, 351/1958/)

Where [5] appears, read: iv., rats, vasopressine 1 NE/kg iv.

Experimental for hexobarbital narcosis: The narcosis potentiating effect of the compounds of the invention were examined on white mice, with 6 animals in each group. The mice were administered orally with the compounds of the invention, then both the control and the test groups were intravenously added 40 mg/kg of hexobarbital in order to make the mice sleep (Kaergard et al.).

For the molecule `OC(CO/N=C1\CCCC\C1=C/c1ccccc1)CN1CCCCCC1` (racemic) [Example 10, R,S-2-(E)-Phenylmethylene-1-(E)-(3-hexamethylene-imino-2-hydroxypropoxyimino)-cyclohexane], the LD50 at 336 h in data set [1] is 900 mg/kg. Further, in data set [2], the change in vivo at 4 mg/kg was -47%. The ED50 in data set [3] (setting [5]) amounted to 1.62 mg/kg.
For the molecule `CN(C)CCCNCC(O)CO/N=C1\CCCC\C1=C/c1ccccc1` (racemic) [Example 11, R,S-2-(E)-Phenylmethylene-1-(E)-[3-(3-dimethylamino-1-propylamino)-2-hydroxy-propoxyimino]-cyclohexane], the LD50 at 336 h in data set [1] was greater than 1000 mg/kg. Besides, the median effective dose (ED50) in data set [3] (setting [5]) was 0.93 mg/kg. The inhibition in vivo at 200 mg/kg in the data set on gastric acid secretion (dose 200 mg/kg po.) was found to be 62%. Further, in data set [4], the ED50 came to 100 mg/kg and the “TI (therapeutic index)” value was 10.
`CN1CCN(CC(O)CO/N=C2\CCCC\C2=C/c2c(Cl)cccc2Cl)CC1` (racemic) [Example 36, R,S-2-(E)-(2,6-Dichlorophenyl-methylene)-1-(E)-[3-(4-methyl-1-piperazinyl)-2-hydroxy-propoxyimino]-cyclohexane] had an LD50 at 336 h in data set [1] of 700 mg/kg. Also, the ED50 in data set [3] (setting [5]) is 1.28 mg/kg; in data set [4] it was roughly 100 mg/kg; in the data set with hexobarbital narcosis it was 14 mg/kg. Further, the “TI (therapeutic index)” value in data set [4] was “about 7”; with hexobarbital narcosis, 50.
In data set [1], `COc1ccc(/C=C2\CCCC\C2=N/OCC(O)CNC2CC2)cc1` (racemic) [Example 40, R,S-2-(E)-(4-Methoxyphenyl-methylene)-1-(E)-(3-cyclopropylamino-2-hydroxy-propoxyimino)-cyclohexane] came in with an LD50 at 336 h of 800 mg/kg. Moreover, in the data set with nervus ischiadicus, the EC50 % came out at 0.19% and the Duration of effect came to 68 min. Besides, the inhibition in vivo at 160 mg/kg in the data set with gastric acid secretion stood at 57%.
Molecule `CCCNCC(O)CO/N=C1\CCCCC\C1=C/c1ccc(OC)cc1` (racemic) [Example 43, R,S-2-(E)-(4'-Methoxyphenyl-methylene)-1-(E)-(3-propylamino-2-hydroxy-propoxyimino)-cycloheptane] registered an LD50 at 336 h in data set [1] of 800 mg/kg. Further, in data set [3] (setting [5]), the ED50 was roughly 2 mg/kg. In addition, in the data set on gastric acid secretion, the inhibition in vivo at 160 mg/kg amounted to 32%. Besides, in the data set on hexobarbital narcosis, the ED50 amounted to 50 mg/kg and the “TI (therapeutic index)” value is reported as 16.
`CCN(CC)CC(O)CO/N=C1\CCCCC\C1=C/c1ccc(OC)cc1` (racemic) [Example 44, R,S-2-(E)-(4-Methoxyphenyl-methylene)-1-(E)-(3-diethylamino-2-hydroxy-propoxyimino)-cycloheptane] had an LD50 at 336 h in data set [1] of 600 mg/kg. The ED50 in data set [3] (setting [5]) came to 1.93 mg/kg.
Consider `CC(C)NCC(O)CO/N=C1\CCCCC1Cc1ccc(Cl)cc1` (racemic) [Example 47, R,S-2-(E)-(4-Chlorophenyl-methyl)-1-(E)-[3-(1-methylethyl-amino)-2-hydroxy-propoxyimino]-cyclohexane], for which the LD50 at 336 h in data set [1] worked out at 700 mg/kg. Further, in data set [3] (setting [5]), the ED50 is 1.29 mg/kg. In the data set on nervus ischiadicus, this molecule displayed an EC50 % of 0.18% and a Duration of effect of 93 min.
In the case of `CC(C)NCC(O)CO/N=C1\CCCCCC\C1=C/c1ccccc1` (racemic) [Example 48, R,S-2-(E)-Phenylmethylene-1-(E)-[3-(1-methylethyl-amino)-2-hydroxypropxyimino]-cyclooctane], the LD50 at 336 h in data set [1] was greater than 1000 mg/kg. Also, in data set [2], the change in vivo at 4 mg/kg is -43.5%. In the data set with nervus ischiadicus, this molecule had an EC50 % of 0.31% and a Duration of effect of 122 min. Further, in the data set with gastric acid secretion (dose 100 mg/kg po.), the inhibition in vivo at 100 mg/kg was 75%.
Regarding `OC(CO/N=C1\CCCC\C1=C/c1ccccc1)CN1CC=C(c2ccccc2)CC1` (racemic) [Example 55, R,S-2-(E)-Phenylmethylene-1-(E)-[3-(4-phenyl-1,2,3,6-tetrahydro)-1-pyridinyl]-2-hydroxy-propoxyimino-cyclohexane], the LD50 at 336 h in data set [1] is greater than 1000 mg/kg. In data set [3] (iv), the ED50 worked out at 1.77 mg/kg.
Take `CC(Cc1ccccc1)NCCC(c1ccccc1)c1ccccc1` (stereo not shown) [Prenilamine, reference compound]: the 50% effective dose (ED50) in data set [3] (iv) came out at 6.5 mg/kg.
